According to patent US20210147571A1, “MONOCLONAL ANTIBODY TARGETING HUMAN TUMOR STEM CELLS AND USE THEREOF” (Suzhou Bojuhua Biomedical Technology Co. Ltd, priority 2017, published 2021):

B1: L11: humanized light chain version L11 (SEQ ID NO:47), higher humanized version based on L6 (protein)
light: DIVMTQTPFSNPVTLGQPASISCRSSKSLLHSNGITYLYWFLQKPGQSPQLLIYQMSNLASGVPDRFSGSGSGTDFTLKISRVEAEDVGVYYCAQNLELYTFGQGTKVEIKRTVAAPSVFIFPPSDEQLKSGTASVVCLLNNFYPREAKVQWKVDNALQSGNSQESVTEQDSKDSTYSLSSTLTLSKADYEKHKVYACEVTHQGLSSPVTKSFNRGEC
modifications: Humanized light chain L11

Legend:
[1] = test system: Bel7402-V13 transplanted tumor; assay: human liver cancer transplanted tumor treated with Hetumomab; assay type: in vivo, nude mice; details: cisplatin 0.3 mg/kg
Experimental: Bel7402-V13 sphere cells were inoculated subcutaneouly to nude mice at 30,000 cells/mouse. The nude mice were randomly divided into 6 groups (6 per group) as follows: the chemotherapy group (0.3 mg/kg cisplatin, 6 mice); the high dose antibody group (10 mg/kg, 6 mice); the high dose antibody+chemotherapy group (6 mice); the low dose antibody group (2.5 mg/kg, 6 mice); the low dose antibody+chemotherapy group (6 mice); and the PBS group (6 mice). The treatments were started the next day after the cells were inoculated, twice a week, and terminated after 5 weeks. The major and minor diameters of the subcutaneously transplanted tumor were measured twice a week. The tumor volume was calculated with the formula V=(π/6)×(major diameter×minor diameter×minor diameter), and the changes in tumor volume and growth rate of each group were observed. […] Tumor growth rate=(Vt−V0)/number of days, where Vt is the tumor volume at each measurement, and V0 is the tumor volume […] ([…]).

Bel7402-V13 cells = assay: CCK8 drug resistance (cisplatin IC50) of flow-sorted cells; assay type: cell-based, human
Experimental: In order to detect the drug resistance of Hetumomab^+ liver cancer cells, Hetumomab^+ cells, parental cells and Hetumomab^− cells obtained by flow sorting sphere cells of human liver cancer cells Bel7402-V13 were seeded at 5000 cells/well in a 96-well plate. Each group of cells was cultured in a complete medium containing 8 different concentrations, i.e., 0 μg/mL, 0.0625 μg/mL, 0.125 μg/mL, 0.25 μg/mL, 0.5 μg/mL, 1 μg/mL, 2 μg/mL, and 4 μg/mL, of cisplatin. The medium was changed once every 3 days, and after 7 days, the OD value was measured by the CCK8 method to determine the IC50 reflecting drug resistance. […] Therefore, Hetumomab^+ liver cancer cells have stronger chemotherapeutic drug resistance than the parental cells and Hetumomab^− cells.

[2] = test system: Bel7402-V13 transplanted tumor; assay: human liver cancer transplanted tumor treated with Hetuzumab H5L11; assay type: in vivo, nude mice; details: cisplatin 0.3 mg/kg, day 36
Experimental: Specifically, the sphere cells of the human liver cancer cell line Bel7402-V13 were harvested and inoculated subcutaneouly into nude mice at 30000 cells/mouse. […] The antibody treatments were started on the second day after inoculation of cancer cells. The experimental group and the control group were treated by intraperitoneal injection. The antibody treatments were performed for 36 days. The chemotherapeutic drug group was treated for 4 weeks, twice a week. The major and minor diameters of the subcutaneously transplanted tumor were measured twice a week. The tumor volume was calculated with the formula V=(π/6)×(major diameter×minor diameter×minor diameter). The change in tumor volume in each group was observed.

[3] = test system: SPCA-1 transplanted tumor; assay: human lung cancer transplanted tumor treated with Hetumomab; assay type: in vivo, nude mice; details: cisplatin 0.3 mg/kg, day 28
Experimental: Specifically, the sphere cells of the human lung cancer cell line SPCA-1 were harvested and inoculated in nude mice at 2.5×10^5 cells/mouse. The mice were divided into following 5 groups, with 5 mice in each group: the PBS control group; the chemotherapy group (cisplatin 0.3 mg/kg); the high dose antibody Hetumomab group (40 mg/kg); the medium dose antibody Hetumomab group (10 mg/kg); and the low dose Hetumomab group (2.5 mg/kg). The antibody treatment was started on the second day after inoculation of lung cancer cells. The experimental groups and the control group were treated by intraperitoneal injection. The treatments were performed for 28 days after inoculation. The chemotherapeutic drug group was treated twice a week. The major and minor diameters of the subcutaneously transplanted tumors were measured twice a week. The tumor volume was calculated with the formula V=(π/6)×(major diameter×minor diameter×minor diameter). The change in tumor volume in each group was observed.

SNU-5 transplanted tumor = assay: human gastric cancer transplanted tumor treated with Hetumomab; assay type: in vivo, nude mice; details: cisplatin 0.3 mg/kg, one month
Experimental: Specifically, the sphere cells of the human gastric cancer cell line SNU-5-V13 were harvested and inoculated in nude mice at 2.5×10^5 cells/mouse. The mice were divided into following 7 groups, with 8 mice in each group: the PBS control group; the mouse IgG control group; the chemotherapy group (cisplatin 0.3 mg/kg); the high dose antibody Hetumomab group (20 mg/kg); the low dose Hetumomab group (1.25 mg/kg); the high dose Hetumomab+chemotherapeutic drug group; and the low dose Hetumomab+chemotherapeutic drug group. The antibody treatment was started on the second day after inoculation of gastric cancer cells.
The experimental groups and the control group were treated by intraperitoneal injection. The treatments were performed for one month. The chemotherapeutic drug group was treated for 4 weeks, twice a week. The major and minor diameters of the subcutaneously transplanted tumor were measured twice a week. The tumor volume was calculated with the formula V=(π/6)×(major diameter×minor diameter×minor diameter). The change in tumor volume in each group was observed.

Bel7402-V13 sphere cells = assay: inhibition of cisplatin resistance (CCK-8 IC50 after antibody treatment); assay type: cell-based, human; details: PBS-treated Bel7402-V13 sphere cells
Experimental: (§1) Drug resistance is one of the biological features of tumor stem cells. […] Each group of cells was cultured with a medium containing 9 different concentrations, i.e., 0, 0.0625, 0.125, 0.25, 0.5, 1, 2, 4, and 8 μg/mL, of cisplatin. The complete medium containing cisplatin was replaced once every 48 hours. After 5 days, CCK-8 reagent was added according to the instructions of CCK-8 kit. OD450 absorbance values were measured, and the IC50 values for each group were calculated.

SPCA-1 cells [4] = assay: as above; assay type: cell-based, human; details: SPCA-1 control group
Experimental: as §1

SPCA-1 cells [5] = assay: CCK8 drug resistance (cisplatin IC50) of flow-sorted cells; assay type: cell-based, human
Experimental: In order to detect the drug resistance of Hetumomab^+ lung cancer cells, Hetumomab^+ cells, parental cells and Hetumomab^− cells obtained by flow sorting sphere cells of human lung cancer cells SPCA-1 were seeded at 5000 cells/well in a 96-well plate. […] Therefore, Hetumomab^+ lung cancer cells have stronger chemotherapeutic drug resistance than the parental cells and Hetumomab^− cells.

[6] = test system: Hetumomab target antigen on cells; assay: cell ELISA affinity of humanized chain versions; assay type: binding, human; details: light chain mutant combined with heavy chain of Hetuximab
Source text: Based on the H1 heavy chain sequence, two other heavy chain mutants were designed as initial humanization: H2 and H3. The degree of humanization of these versions was in descending order. […] Since H1 was the most humanized version in which the framework regions were all humanized, H1 was finally determined as the preferred humanization molecular template.
Based on the L1 with fully humanized FR region, L2 and L3 were designed, and the degree of humanization of the three version was also in descending order. […] In order to find out which key amino acids were mutated during humanization, back mutations were performed, and nine different mutants (L4-L12) were prepared.
Therefore, L6, L11, and L12 were finally selected for optimization screening of the best light chain humanized version.
However, glycosylated isomers of Hetuzumab H1 heavy chain were confirmed by antibody sequence analysis and reductive electrophoresis analysis. In the analysis of H1 heavy chain expression products by electrophoresis, H1L6, H1L11, and H1L12 were all shown with weak sub-bands visible below the main band of the heavy chain. […] This may cause serious quality problems of uniformity, which is very unfavorable for drug development. […] H4 and H5 were combined with L11, respectively, and analyzed by electrophoresis after expression. […]

Molecule	tumor volume inhibition rate ([1]; at drug withdrawal after 5 weeks)	tumor growth rate ([1]; month after drug withdrawal)	tumor volume inhibition rate ([1]; one month after drug withdrawal)	IC50 of cisplatin (Bel7402-V13 cells; Bel7402-V13 Hetumomab+ cells, 7 days)	IC50 of cisplatin (Bel7402-V13 cells; Bel7402-V13 Hetumomab− cells)	IC50 of cisplatin (Bel7402-V13 cells; Bel7402-V13 Parental Cells)	Tumor Volume Inhibition Rate (%) [2]	Tumor Volume Inhibition Rate (%) [3]	Tumor Volume Inhibition Rate (%) (SNU-5 transplanted tumor)	IC50 of cisplatin, control group (Bel7402-V13 sphere cells)	IC50 of cisplatin, control group (SPCA-1 cells [4])	IC50 of cisplatin (SPCA-1 cells [5]; SPCA-1 Hetumomab+ cells)	IC50 of cisplatin (SPCA-1 cells [5]; SPCA-1 Hetumomab− cells)	IC50 of cisplatin (SPCA-1 cells [5]; SPCA-1 Parental Cells)	affinity by cellular ELISA [6]
N.N.[Cl][Pt][Cl] [cisplatin]	83.5%	0.154 cm^3/day	48.6%	0.739 mg/L	0.313 mg/L	0.502 mg/L	14.52%	24.91%	33.16%	0.9 mg/L	0.351 mg/L	0.707 mg/L	0.180 mg/L	0.513 mg/L	–
B1	–	–	–	–	–	–	–	–	–	–	–	–	–	–	close to that of L6
